Data: the NIST ThermoML archive (doi:10.1021/acs.jced.7b00335)

Experiment: xn = mol fraction of the nth substance listed
Conditions: 100 kPa, Liquid; for viscosity: Concentric cylinders viscometry; for mass density: Vibrating tube method

O=Cc1ccccc1 [benzaldehyde] + CCCC(C)O
Conditions	mass density [kg/m3]	viscosity [mPa·s]
293.15 K, x1 = 0.0809	825.2	3.3
293.15 K, x1 = 0.1662	841.4	2.75
293.15 K, x1 = 0.2441	858.3	2.36
293.15 K, x1 = 0.3552	882.5	1.95
293.15 K, x1 = 0.4418	903	1.757
293.15 K, x1 = 0.5664	933.2	1.62
293.15 K, x1 = 0.6565	956.4	1.568
293.15 K, x1 = 0.7447	980	1.537
293.15 K, x1 = 0.8528	1008.5	1.516
293.15 K, x1 = 0.9419	1031.8	1.51
293.15 K, x1 = 1	1046.3	1.52
298.15 K, x1 = 0.0809	821.1	2.775
298.15 K, x1 = 0.1662	837.2	2.35
298.15 K, x1 = 0.2441	854	2.05
298.15 K, x1 = 0.3552	878.2	1.731
298.15 K, x1 = 0.4418	898	1.584
298.15 K, x1 = 0.5664	928.2	1.458
298.15 K, x1 = 0.6565	951.2	1.416
298.15 K, x1 = 0.7447	975.4	1.395
298.15 K, x1 = 0.8528	1004.1	1.39
298.15 K, x1 = 0.9419	1027.4	1.395
298.15 K, x1 = 1	1041.7	1.41
303.15 K, x1 = 0.0809	817	2.4
303.15 K, x1 = 0.1662	833	2.06
303.15 K, x1 = 0.2441	849.7	1.809
303.15 K, x1 = 0.3552	873.9	1.55
303.15 K, x1 = 0.4418	894.4	1.411
303.15 K, x1 = 0.5664	923.8	1.301
303.15 K, x1 = 0.6565	946.9	1.259
303.15 K, x1 = 0.7447	971	1.25
303.15 K, x1 = 0.8528	1000	1.259
303.15 K, x1 = 0.9419	1023.1	1.28
303.15 K, x1 = 1	1037.1	1.31
308.15 K, x1 = 0.0809	812.9	2.035
308.15 K, x1 = 0.1662	828.8	1.78
308.15 K, x1 = 0.2441	845.5	1.584
308.15 K, x1 = 0.3552	869.6	1.369
308.15 K, x1 = 0.4418	890.3	1.25
308.15 K, x1 = 0.5664	919.3	1.159
308.15 K, x1 = 0.6565	942.3	1.128
308.15 K, x1 = 0.7447	966.5	1.117
308.15 K, x1 = 0.8528	995.5	1.138
308.15 K, x1 = 0.9419	1018	1.175
308.15 K, x1 = 1	1032.4	1.22
313.15 K, x1 = 0.0809	808.6	1.746
313.15 K, x1 = 0.1662	824.4	1.537
313.15 K, x1 = 0.2441	841.1	1.37
313.15 K, x1 = 0.3552	865.2	1.185
313.15 K, x1 = 0.4418	885.2	1.088
313.15 K, x1 = 0.5664	914.8	1.021
313.15 K, x1 = 0.6565	937.8	0.999
313.15 K, x1 = 0.7447	962	0.999
313.15 K, x1 = 0.8528	991.1	1.035
313.15 K, x1 = 0.9419	1013.9	1.088
313.15 K, x1 = 1	1027.9	1.15
318.15 K, x1 = 0.0809	804.2	1.46
318.15 K, x1 = 0.1662	820	1.291
318.15 K, x1 = 0.2441	836.7	1.167
318.15 K, x1 = 0.3552	860.8	1.032
318.15 K, x1 = 0.4418	881.4	0.963
318.15 K, x1 = 0.5664	910.4	0.9
318.15 K, x1 = 0.6565	933.4	0.881
318.15 K, x1 = 0.7447	957.4	0.884
318.15 K, x1 = 0.8528	986.6	0.932
318.15 K, x1 = 0.9419	1009.1	1.011
318.15 K, x1 = 1	1023.4	1.09
323.15 K, x1 = 0.0809	799.7	1.206
323.15 K, x1 = 0.1662	815.6	1.068
323.15 K, x1 = 0.2441	832.2	0.984
323.15 K, x1 = 0.3552	856.3	0.887
323.15 K, x1 = 0.4418	876.9	0.831
323.15 K, x1 = 0.5664	906.7	0.789
323.15 K, x1 = 0.6565	928.9	0.782
323.15 K, x1 = 0.7447	952.9	0.799
323.15 K, x1 = 0.8528	981.6	0.85
323.15 K, x1 = 0.9419	1004.5	0.941
323.15 K, x1 = 1	1019.1	1.03
